# Measurements reported in ChEMBL document CHEMBL3400114, “The design, synthesis and biological evaluation of conformationally restricted 4-substituted-2,6-dimethylfuro[2,3-d]pyrimidines as multi-targeted receptor tyrosine kinase and microtubule inhibitors as potential antitumor agents” (Bioorg Med Chem, 2015).
# What was measured:
# Tubulin (Bos taurus) = Tubulin (Bos taurus) (UniProt Q6B856+Q862L2+Q862F3); assay: Displacement of [3H]colchicine from bovine brain tubulin assembly at 1 uM
# [1] = Growth inhibition of human RXF393 cells after 48 hrs by sulforhodamine B assay; assay type: functional; conditions: RXF 393, 48 h
# U-251 = assay: Growth inhibition of human U251 cells after 48 hrs by sulforhodamine B assay; assay type: functional; conditions: U-251, 48 h
# SNB-75 = assay: Growth inhibition of human SNB75 cells after 48 hrs by sulforhodamine B assay; assay type: functional; conditions: SNB-75, 48 h
# CAKI-1 = assay: Growth inhibition of human Caki1 cells after 48 hrs by sulforhodamine B assay; assay type: functional; conditions: CAKI-1, 48 h
# [2] = Growth inhibition of human […] cells after 48 hrs by sulforhodamine B assay; assay type: functional
# A-431 = assay: Antiproliferative activity against human A431 cells after 48 hrs by sulforhodamine B assay; assay type: functional, cell-based; conditions: A-431, 48 h
# HeLa = assay: Antiproliferative activity against human HeLa cells after 48 hrs by sulforhodamine B assay; assay type: functional, cell-based
# Malme-3M = assay: Growth inhibition of human MALME-3M cells after 48 hrs by sulforhodamine B assay; assay type: functional
# SN12C = assay: Growth inhibition of human SN12C cells after 48 hrs by sulforhodamine B assay; assay type: functional
# [3] = Growth inhibition of human MOLT4 cells after 48 hrs by sulforhodamine B assay; assay type: functional; conditions: MOLT-4, 48 h
# MDA-MB-435 = assay: Antiproliferative activity against human MDA-MB-435 cells after 48 hrs by sulforhodamine B assay; assay type: functional, cell-based; conditions: MDA-MB-435, 48 h
# HL-60(TB) = assay: Growth inhibition of human HL-60(TB) cells after 48 hrs by sulforhodamine B assay; assay type: functional; conditions: HL-60, 48 h
# SF-268 = assay: Growth inhibition of human SF268 cells after 48 hrs by sulforhodamine B assay; assay type: functional; conditions: SF-268, 48 h
# K562 = assay: Growth inhibition of human K562 cells after 48 hrs by sulforhodamine B assay; assay type: functional; conditions: K562, 48 h
# [4] = Induction of microtubule depolymerization in rat A10 cells after 18 hrs by indirect immunofluorescence assay; assay type: cell-based
# [5] = Growth inhibition of human COLO205 cells after 48 hrs by sulforhodamine B assay; assay type: functional; conditions: COLO 205, 48 h
smiles,measurement,setting,value
COc1ccc2c(c1)CCCN2c1nc(C)nc2oc(C)cc12,inhibition,Tubulin (Bos taurus),82%
same,GI50,[1],< 10 nM
same,GI50,U-251,< 10 nM
same,GI50,SNB-75,< 10 nM
same,GI50,CAKI-1,< 10 nM
same,GI50,[2],< 10 nM
same,IC50,A-431,18 nM
same,IC50,HeLa,13.5 nM
same,GI50,Malme-3M,< 10 nM
same,GI50,SN12C,< 10 nM
same,GI50,[3],15 nM
same,IC50,MDA-MB-435,9.8 nM
same,GI50,HL-60(TB),< 10 nM
same,GI50,SF-268,16.8 nM
same,GI50,K562,< 10 nM
same,EC50,[4],21 nM
same,GI50,[5],< 10 nM
